Measured values: patent US3960863A, “Pyrido[1,2-a]pyrimidinone derivatives” (Sankyo Company Limited, priority 1974, dated 1976)
Read-outs that look alike come from different tables or passages of the source.

Tests used:
[1] = test system: Thiopental-induced Anesthesia; assay: Potentiating effect of thiopental-induced anesthesia (anesthesia-potentiating effect); type: in vivo, mouse; conditions: 0.5 h, read-out: Potentiating Effect of Thiopental-induced Anesthesia ED50
Protocol: The pharmacological test was performed in the manner that to a mouse having the body weight of about 25 g was orally administered and, after 30 minutes, given through the vein sodium thiopental in an amount of 30 mg per 1 kg of the body weight, and then the duration time of loss of righting reflux was detected. In the above Table, the value is expressed in ED50 value, by which the duration time of loss of righting reflex is prolonged twice as long as that of the control having been given with thiopental only.

[2] = Acute toxicity in mouse (LD50); conditions: in vivo
[3] = mouse, oral, sodium thiopental 30 mg/kg i.v. after 30 minutes, ED50 = dose doubling duration of loss of righting reflex vs control, Litchfield-Wilcoxon, 95% confidence limits in parentheses
[4] = ip, 95% confidence limits in parentheses where given, read-out: Acute Toxicity in mouse LD50 (i.p.)
[5] = po, 95% confidence limits in parentheses, read-out: Acute Toxicity in mouse LD50 (p.o.)

Cc1ccc(N2CCN(CCc3c(C)nc4c(C)cccn4c3=O)CC2)cc1 [3-[2-(4-p-Tolyl-1-piperazinyl)ethyl]-2,9-dimethyl-4H-pyrido[1,2-a]pyrimidin-4-one]
ED50 [1, 3]: 1.8 mg/kg
LD50 [2, 4]: 100 to 300 mg/kg

Cc1ccn2c(=O)c(CCN3CCN(c4ccc(Cl)cc4)CC3)c(C)nc2c1 [3-[2-(4-p-Chlorophenyl-1-piperazinyl)ethyl]-2,8-dimethyl-4H-pyrido[1,2-a]pyrimidin-4-one]
ED50 [1, 3]: 2.9 mg/kg
LD50 [2, 4]: 100 to 300 mg/kg

Cc1cccc(N2CCN(CCc3c(C)nc4c(C)cccn4c3=O)CC2)c1 [3-[2-(4-m-Tolyl-1-piperazinyl)ethyl]-2,9-dimethyl-4H-pyrido[1,2-a]pyrimidin-4-one]
ED50 [1, 3]: 1.25 mg/kg
LD50 [2, 4]: 100 to 300 mg/kg

Cc1ccn2c(=O)c(CCN3CCN(c4cccc(Cl)c4)CC3)c(C)nc2c1 [3-[2-(4-m-Chlorophenyl-1-piperazinyl)ethyl]-2,8-dimethyl-4H-pyrido[1,2-a]pyrimidin-4-one]
ED50 [1, 3]: 0.92 mg/kg
LD50 [2, 4]: 100 to 300 mg/kg
LD50 [2, 5]: 635 mg/kg

Cc1cccc(N2CCN(CCc3c(C)nc4cc(C)cc(C)n4c3=O)CC2)c1 [3-[2-(4-m-tolyl-1-piperazinyl)ethyl]-2,6,8-trimethyl-4H-pyrido[1,2-a]pyrimidin-4-one]
ED50 [1, 3]: 1.7 mg/kg
LD50 [2, 4]: 100 to 300 mg/kg

Cc1cccc(N2CCN(CCc3c(C)nc4cc(C)ccn4c3=O)CC2)c1 [3-[2-(4-m-tolyl-1-piperazinyl)ethyl]-2,8-dimethyl-4H-pyrido[1,2-a]pyrimidin-4-one]
ED50 [1, 3]: 0.8 mg/kg
LD50 [2, 4]: 100 to 300 mg/kg
LD50 [2, 5]: 480 mg/kg

COc1cccc(N2CCN(CCc3c(C)nc4cc(C)ccn4c3=O)CC2)c1 [3-[2-(4-m-Methoxyphenyl-1-piperazinyl)ethyl]-2,8-dimethyl-4H-pyrido[1,2-a]pyrimidin-4-one]
ED50 [1, 3]: 0.7 mg/kg
LD50 [2, 4]: 100 to 300 mg/kg

CN(C)CCCN1c2ccccc2Sc2ccc(Cl)cc21 [chlorpromazine, reference compound]
ED50 ([1]; Mus musculus, po): 3.5 mg/kg
LD50 [2, 4]: 105 mg/kg
LD50 [2, 5]: 245 mg/kg
